Publication PMC13083723 (Patterns, 2026)
Several values for one entry are separate records, joined by “and”; a condition that tells them apart may be missing. Identical values can stand only once. Counter-ions that a name gives are not always drawn. Like-named read-outs stand apart in the source and are kept apart here.

Assays:
Vero-E6 cells = assay: cells; format: cell-based; details: for activation at 10 µM: Chlorocebus sabaeus, Vero C1008, 24 h
[1] = cited from earlier work
A549-ACE2 cells = assay: cells; format: cell-based; details: for activation at 10 µM: A549-ACE2, 24 h, read-out: PLD_Effect(%) A549-ACE2
[2] = read-out: PLD_Effect(%) VERO-E6

CN1C2CCC1CC(OC(c1ccc(F)cc1)c1ccc(F)cc1)C2 (stereo not drawn)
activation at 10 µM (Vero-E6 cells; [2]): 61.5%
Log 1/Ki (value) [1]: 7.86
pchembl_value (Log 1/Ki) [1]: 7.86
pchembl_value (Ki) ([1]; value is the negative log10 of mol/L): 6.84 and 6.07 and 7.94
activation at 10 µM (A549-ACE2 cells): 76.3%

CN1CCN(C2=Cc3ccccc3Oc3ccc(Cl)cc32)CC1 [2-CMDO]
activation at 10 µM (Vero-E6 cells; [2]): 61.3%
activation at 10 µM (A549-ACE2 cells): 92.5%

CC(=O)c1ccc2c(c1)N(CCCN1CCN(CCO)CC1)c1ccccc1S2 [ACETOPHENAZINE MALEATE]
activation at 10 µM (Vero-E6 cells; [2]): 74.4%
activation at 10 µM (A549-ACE2 cells): 52.6%

CN(CCc1ccc(Cl)c(Cl)c1)CCN1CCCC1 [BD-1008]
activation at 10 µM (Vero-E6 cells; [2]): 51.3%
activation at 10 µM (A549-ACE2 cells): 62.5%

CN(C)CCCOc1nn(Cc2ccccc2)c2ccccc12 [BENZYDAMINE HYDROCHLORIDE]
activation at 10 µM (Vero-E6 cells; [2]): 51.2%
activation at 10 µM (A549-ACE2 cells): 65.2%

CC(COc1ccccc1Cc1ccccc1)N1CCCCC1 (stereo not drawn) [Benproperine Phosphate]
activation at 10 µM (Vero-E6 cells; [2]): 72%
activation at 10 µM (A549-ACE2 cells): 81.6%

O=C(CN1C2=NCCN2c2ccccc21)c1ccc(-c2ccccc2)cc1 [CCT-031374]
activation at 10 µM (Vero-E6 cells; [2]): 53.9%
activation at 10 µM (A549-ACE2 cells): 69.9%

O=C1NC(=O)c2cc(Nc3ccccc3)c(Nc3ccccc3)cc21 [CGP-52411, reference compound]
result_ITMP (Vero-E6 cells): -7.23 percent effect
activation at 10 µM (Vero-E6 cells; read-out: PL_Result): -10.9%
result_KI (A549-ACE2 cells): -10.8674 percent effect

Cc1[nH]c2ccc(Cl)cc2c1C1=CCNCC1 [EMD-386088]
activation at 10 µM (Vero-E6 cells; [2]): 96.8%
activation at 10 µM (A549-ACE2 cells): 79.1%

CCn1c2ccccc2c2cc(CNCc3ccccc3OC)ccc21 [HLCL-61 (hydrochloride)]
activation at 10 µM (Vero-E6 cells; [2]): 56.5%
activation at 10 µM (A549-ACE2 cells): 83%

CCCCN(CCCC)CCC(O)c1cc2c(Cl)cc(Cl)cc2c2cc(C(F)(F)F)ccc12 (stereo not drawn) [Halofantrine?HCl]
activation at 10 µM (Vero-E6 cells; [2]): 68.8%
activation at 10 µM (A549-ACE2 cells): 77.7%

c1ccc2c(CCNc3ccc(Nc4ccncc4)cc3)c[nH]c2c1 [JNJ 26854165 (Serdemetan)]
activation at 10 µM (Vero-E6 cells; [2]): 74%
activation at 10 µM (A549-ACE2 cells): 88.4%

C[C@@H](O[C@H]1OCCN(Cc2nn[nH]c2CN(C)C)[C@H]1c1ccc(F)cc1)c1cc(C(F)(F)F)cc(C(F)(F)F)c1 [L-760735]
activation at 10 µM (Vero-E6 cells; [2]): 71.2%
activation at 10 µM (A549-ACE2 cells): 107%

O=C(Nc1ncc(SCCN2CCCC2)s1)[C@]1(c2ccc(S(=O)(=O)C3CC3)cc2)C[C@H]1C1CCCCC1 [LY2608204]
activation at 10 µM (Vero-E6 cells; [2]): 55.8%
activation at 10 µM (A549-ACE2 cells): 95.6%

COc1cc(CN(CCN)C(=O)c2cccs2)ccc1OCc1ccccc1 [M8-B]
activation at 10 µM (Vero-E6 cells; [2]): 85.4%
activation at 10 µM (A549-ACE2 cells): 72.2%

O=C(NCCN1CCC2(CC1)C(=O)NCN2c1cccc(F)c1)c1ccc(F)c(F)c1 [ML-298]
activation at 10 µM (Vero-E6 cells; [2]): 60.1%
activation at 10 µM (A549-ACE2 cells): 97%

CCn1c2ccccc2c2cc(CNC)ccc21 [PhiKan-083]
activation at 10 µM (Vero-E6 cells; [2]): 73.3%
activation at 10 µM (A549-ACE2 cells): 83.6%

COc1cccc(CCc2ccccc2OCC[C@@H]2C[C@@H](O)CN2C)c1 [R-96544]
activation at 10 µM (Vero-E6 cells; [2]): 90.4%
activation at 10 µM (A549-ACE2 cells): 92.6%

CCC(C)CNCC(=O)N1CCc2sccc2C1COc1cccc(C)c1 (stereo not drawn) [RU-SKI-43]
activation at 10 µM (Vero-E6 cells; [2]): 57.8%
activation at 10 µM (A549-ACE2 cells): 85.5%

COc1cc2c(cc1O)C(CCc1ccc(Cl)cc1)N(C)CC2 (stereo not drawn) [Ro-04-5595]
activation at 10 µM (Vero-E6 cells; [2]): 64%
activation at 10 µM (A549-ACE2 cells): 61%

C[C@H](N)Cn1ccc2cc(F)c(Cl)cc21 [Ro-60-0175 fumarate]
activation at 10 µM (Vero-E6 cells; [2]): 50.7%
activation at 10 µM (A549-ACE2 cells): 82.7%

COc1ccc2[nH]c3c(-c4cccc5ccccc45)nccc3c2c1 [SP-141, reference compound]
result_ITMP (Vero-E6 cells): 16.13 percent effect
result_KI (A549-ACE2 cells): -11.253 percent effect

O=[N+]([O-])c1cn2c(n1)OC[C@@H](OCc1ccc(OC(F)(F)F)cc1)C2 [SPE_K96671969]
activation at 10 µM (Vero-E6 cells; read-out: PL_Result): -12.7%

CC(C)COC(=O)c1ccc(N)cc1 [SPE_K96714749]
activation at 10 µM (Vero-E6 cells; read-out: PL_Result): 1.09%

CC(C)c1ccc(CC(=O)N2CCC[C@@H](c3cccc(OC(C)(C)C(=O)O)c3)C2)cc1 [SPE_K96843359]
activation at 10 µM (Vero-E6 cells; read-out: PL_Result): -10.8%

Cc1ccc(=O)n(-c2ccccc2)c1 [SPE_K96862998]
activation at 10 µM (Vero-E6 cells; read-out: PL_Result): 4.03%

C#C[C@]1(O)CC[C@H]2[C@@H]3CCC4=CC(=O)CCC4=C3C=C[C@@]21CC [SPE_K97472745]
activation at 10 µM (Vero-E6 cells; read-out: PL_Result): -10.6%

OC[C@H]1O[C@H](O)C[C@@H](O)[C@@H]1O [SPE_K97808269]
activation at 10 µM (Vero-E6 cells; read-out: PL_Result): -3.49%

C[C@@H](c1ccc2nccn2c1)n1nnc2ncc(-c3cnn(C)c3)nc21 [SPE_K98028353]
activation at 10 µM (Vero-E6 cells; read-out: PL_Result): -4.44%

C=CCc1ccc(O)c(-c2ccc(O)c(CC=C)c2)c1 [SPE_K98493452]
activation at 10 µM (Vero-E6 cells; read-out: PL_Result): -13.9%

C[C@]12CC[C@H]3[C@@H](CCC4=CC(=O)CC[C@@]43C)[C@@H]1CC[C@@H]2C(=O)CO [SPE_K98521173]
activation at 10 µM (Vero-E6 cells; read-out: PL_Result): -5.9%

O=C(O)c1ccccc1-c1ccc(C(F)(F)F)cc1 [SPE_K99506538]
activation at 10 µM (Vero-E6 cells; read-out: PL_Result): 0.609%

CC(=O)[C@@]1(O)CC[C@H]2[C@@H]3C[C@H](C)C4=CC(=O)CC[C@]4(C)[C@H]3CC[C@@]21C [SPE_K99615199]
activation at 10 µM (Vero-E6 cells; read-out: PL_Result): -9.68%

CC1(C)CNc2cc(NC(=O)c3cccnc3NCc3ccncc3)ccc21 [SPE_K99616396]
activation at 10 µM (Vero-E6 cells; read-out: PL_Result): -4.48%

Cc1cc2c(cc1C(F)(F)F)N(C(=O)Nc1ccc(Oc3cccnc3C)nc1)CC2 [SPE_K99968849]
activation at 10 µM (Vero-E6 cells; read-out: PL_Result): 3.28%

NC(=O)C1=CN([C@@H]2O[C@H](COP(=O)(O)OP(=O)(O)OC[C@H]3O[C@@H](n4cnc5c(N)ncnc54)[C@H](OP(=O)(O)O)[C@@H]3O)[C@@H](O)[C@H]2O)C=CC1 [SPE_M06409173]
activation at 10 µM (Vero-E6 cells; read-out: PL_Result): -2.48%

OCc1cc([C@@H](O)CNCCCCCCOCCOCc2c(Cl)cccc2Cl)ccc1O [SPE_M36487418]
activation at 10 µM (Vero-E6 cells; read-out: PL_Result): 28.8%

CC(C)(C)NCC(O)c1cc(O)cc(O)c1 (stereo not drawn) [SPE_M79902621]
activation at 10 µM (Vero-E6 cells; read-out: PL_Result): -4.19%

CN(C)CCCN1c2ccccc2Sc2ccc(C(F)(F)F)cc21 [TRIFLUPROMAZINE HYDROCHLORIDE]
AC50 ([1]; read-out: AC50 (value)): 3 nM

O=C(O[C@H]1CN2CCC1CC2)N(Cc1cc(F)c(F)c(F)c1)c1cccc(F)c1 [Tarafenacin (D-tartrate)]
activation at 10 µM (Vero-E6 cells; [2]): 71.4%
activation at 10 µM (A549-ACE2 cells): 91.5%

O[C@H]([C@H](O)[C@@H]1CO1)[C@H]1CO1 [VAL-083, reference compound]
result_ITMP (Vero-E6 cells): -1.6 percent effect
result_KI (A549-ACE2 cells): -10.5072 percent effect

Cc1nc2ccc(Oc3ccc(F)cc3)cc2c(=O)n1C[C@H]1CCCN(C(C)C)C1 [YIL-781]
activation at 10 µM (Vero-E6 cells; [2]): 56.3%
activation at 10 µM (A549-ACE2 cells): 52.7%

CN1CC2c3ccccc3Oc3ccc(Cl)cc3C2C1 (stereo not drawn) [asenapine maleate]
activation at 10 µM (Vero-E6 cells; [2]): 65.2%
activation at 10 µM (A549-ACE2 cells): 66.1%

CC(COc1ccccc1Cc1ccccc1)N1CCCCC1 (stereo not drawn) [benproperine, reference compound]
PLD propensity (Vero-E6 cells): high PLD propensity

Clc1ccc2c(c1)N=C(N1CCNCC1)c1ccccc1N2 [desmethylclozapine]
activation at 10 µM (Vero-E6 cells; [2]): 77.7%
activation at 10 µM (A549-ACE2 cells): 89.5%

CCc1cc(Cl)c(OC)c(C(=O)NC[C@@H]2CCCN2CC)c1O [eticlopride, reference compound]
result_ITMP (Vero-E6 cells): 41.39 percent effect
result_KI (A549-ACE2 cells): 92.2773 percent effect

CCSc1ccc2c(c1)N(CCCN1CCN(C)CC1)c1ccccc1S2 [thiethylperazine]
activation at 10 µM (Vero-E6 cells; [2]): 59.1%
activation at 10 µM (A549-ACE2 cells): 98%

Ac-PHSCN-NH2 [SPE_K00521308]
PL_Result (Vero-E6 cells): -0.965
